Data from paper PMC9841532, “Exploring the Effect of Halogenation in a Series of Potent and Selective A2B Adenosine Receptor Antagonists” (Journal of Medicinal Chemistry, 2022).

Columns and labels:
[1] = target: T1, hA2AAR (Homo sapiens, UniProt P29274); experiment: Radioligand binding competition, [3H]ZM241385, membranes from HeLa-A2A cells; conditions: 1 μM, [3H]ZM241385, human HeLa cells, n = 2
T1 construct: expressed in transfected cells; host or cells: HeLa (HeLa-A2A) cell membranes
Description: (§1) All ligands reported in Tables 1–5 were obtained and tested as racemic mixtures. The whole set was evaluated in silico with a combination of a Rdkit[37] PAINS filter and Instant JChem from Chemaxon (https://www.chemaxon.com), to rule out the possibility that these ligands can be promiscuous pan-assay interference compounds (PAINS) and to assess their bioavailability, respectively. […] The stereoisomers of selected compounds were obtained by chiral resolution and tested at the four human AR subtypes in their enantiopure forms (Table 6).
(§2) A brief description is given below. […] Non-specific binding was determined in the presence of 10 μM R-PIA. The reaction mixture was incubated at 25 °C for 60 min. […] The reaction mixture was incubated at 25 °C for 30 min. […] The reaction mixture was incubated at 25 °C for 30 min. […] Non-specific binding was determined in the presence of 100 μM R-PIA. […] After the incubation time, membranes were washed and filtered and radioactivity was detected in a MicroBeta TriLux reader (PerkinElmer).

[2] = target: T2, hA3AR (Homo sapiens, UniProt P0DMS8); experiment: Radioligand binding competition, [3H]NECA, membranes from HeLa-A3 cells; conditions: for % at 1 μM hA3 (percentage displacement of specific binding): [3H]NECA, human HeLa cells, n = 2
T2 construct: expressed in transfected cells; host or cells: HeLa (HeLa-A3) cell membranes
T2 sequence (P0DMS8 1-318): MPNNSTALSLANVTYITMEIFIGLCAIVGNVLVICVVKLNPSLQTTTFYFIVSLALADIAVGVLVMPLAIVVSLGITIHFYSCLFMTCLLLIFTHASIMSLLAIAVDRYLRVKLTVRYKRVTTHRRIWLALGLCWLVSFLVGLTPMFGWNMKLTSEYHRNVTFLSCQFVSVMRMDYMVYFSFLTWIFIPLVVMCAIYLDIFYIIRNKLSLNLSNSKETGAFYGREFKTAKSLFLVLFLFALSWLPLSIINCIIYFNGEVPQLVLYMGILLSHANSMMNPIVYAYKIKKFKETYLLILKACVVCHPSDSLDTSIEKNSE
Description: as §1, §2

[3] = target: T3, hA1AR (Homo sapiens, UniProt P30542); experiment: Radioligand binding competition, [3H]DPCPX, membranes from CHO-A1 cells; conditions: 1 μM, [3H]DPCPX, human CHO cells, n = 2
T3 sequence (P30542 1-326): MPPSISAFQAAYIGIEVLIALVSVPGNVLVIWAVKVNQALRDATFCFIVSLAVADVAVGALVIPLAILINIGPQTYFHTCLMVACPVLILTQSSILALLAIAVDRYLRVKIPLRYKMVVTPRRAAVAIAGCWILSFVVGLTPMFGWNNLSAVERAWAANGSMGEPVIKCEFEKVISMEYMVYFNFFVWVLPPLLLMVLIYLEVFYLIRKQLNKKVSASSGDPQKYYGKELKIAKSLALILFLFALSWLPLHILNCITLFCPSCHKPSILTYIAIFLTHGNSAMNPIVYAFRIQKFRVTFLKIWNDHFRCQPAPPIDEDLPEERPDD
Description: as §1, §2

[4] = target: T4, hA2BAR (Homo sapiens, UniProt P29275); experiment: Radioligand binding competition, [3H]DPCPX, membranes from HEK-293-A2B cells; parameters: Exp. dG: unit not given here; conditions: for Ki: read-out: Ki hA2B; for % at 1 μM hA2B (percentage displacement of specific binding): [3H]DPCPX, human HEK-293 cells, n = 2
T4 construct: host or cells: HEK-293 (HEK-293-A2B) cell membranes
T4 sequence (P29275 1-332): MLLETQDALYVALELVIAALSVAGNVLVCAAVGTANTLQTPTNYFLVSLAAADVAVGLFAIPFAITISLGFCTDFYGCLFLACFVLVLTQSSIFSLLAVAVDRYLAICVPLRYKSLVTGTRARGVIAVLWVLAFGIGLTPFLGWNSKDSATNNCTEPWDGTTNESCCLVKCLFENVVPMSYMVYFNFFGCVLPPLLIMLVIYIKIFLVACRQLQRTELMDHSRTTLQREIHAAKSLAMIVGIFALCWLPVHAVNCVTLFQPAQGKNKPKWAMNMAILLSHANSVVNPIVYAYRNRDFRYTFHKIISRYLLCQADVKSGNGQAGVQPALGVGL
Description: as §1, §2

[5] = displacement of specific [3H]DPCPX binding in human HEK-293 cells, n = 3

T1 sequence (P29274 whole entry): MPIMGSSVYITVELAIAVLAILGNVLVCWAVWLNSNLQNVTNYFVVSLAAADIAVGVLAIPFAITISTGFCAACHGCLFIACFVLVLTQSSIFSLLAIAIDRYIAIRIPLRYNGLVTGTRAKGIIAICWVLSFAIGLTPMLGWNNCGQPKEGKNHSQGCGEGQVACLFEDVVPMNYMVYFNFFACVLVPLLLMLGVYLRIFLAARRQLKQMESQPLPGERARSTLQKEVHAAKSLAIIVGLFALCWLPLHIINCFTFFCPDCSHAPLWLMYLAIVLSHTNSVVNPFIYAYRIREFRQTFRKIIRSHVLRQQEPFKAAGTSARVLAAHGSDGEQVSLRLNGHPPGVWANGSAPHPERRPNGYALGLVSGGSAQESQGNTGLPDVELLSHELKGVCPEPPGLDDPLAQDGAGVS

| Compound | % at 1 μM hA2A (percentage displacement of specific binding) [1] [%] | % at 1 μM hA3 (percentage displacement of specific binding) [2] [%] | % at 1 μM hA1 (percentage displacement of specific binding) [3] [%] | Ki [4, 5] [nM] | % at 1 μM hA2B (percentage displacement of specific binding) [4] [%] | Ki hA2B [4, 5] | Exp. dG ([4]; experimental binding free energy, Supplementary Table S3, unit not given (errors in kcal/mol)) | Ki ([2]; displacement of specific [3H]NECA binding in human HeLa cells, n = 3, read-out: Ki hA3) [nM] |
| --- | --- | --- | --- | --- | --- | --- | --- | --- |
| CCOC(=O)C1=C(C)Nc2nc3cc(F)c(F)cc3n2C1c1ccco1 (stereo not drawn) [14a] | 2 | 2 | 1 | 44.1 ± 1.7 | – | – | – | – |
| CCOC(=O)C1=C(C)Nc2nc3cc(F)c(F)cc3n2C1c1ccoc1 (stereo not drawn) [14c] | 36 | 17 | 22 | 28.2 ± 0.8 | – | – | – | – |
| CC1=C(C(=O)OC(C)C)C(c2ccoc2)n2c(nc3cc(F)c(F)cc32)N1 (stereo not drawn) [14d] | 16 | 20 | 17 | 52.9 ± 1.5 | – | – | – | – |
| CCOC(=O)C1=C(C)Nc2nc3cc(F)c(F)cc3n2C1c1cccs1 (stereo not drawn) [14e] | 3 | 5 | 2 | – | 25 | – | – | – |
| CC1=C(C(=O)OC(C)C)C(c2cccs2)n2c(nc3cc(F)c(F)cc32)N1 (stereo not drawn) [14f] | 1 | 10 | 1 | – | 1 | – | – | – |
| CCOC(=O)C1=C(C)Nc2nc3cc(F)c(F)cc3n2C1c1ccsc1 (stereo not drawn) [14g] | 1 | 5 | 1 | 519 ± 7 | – | – | – | – |
| CC1=C(C(=O)OC(C)C)C(c2ccsc2)n2c(nc3cc(F)c(F)cc32)N1 (stereo not drawn) [14h] | 3 | 4 | 1 | – | 43 | – | – | – |
| CCOC(=O)C1=C(C)Nc2nc3cc(Cl)c(Cl)cc3n2C1c1ccco1 (stereo not drawn) [14i] | 5 | 1 | 2 | – | 9 | – | – | – |
| CC1=C(C(=O)OC(C)C)C(c2ccco2)n2c(nc3cc(Cl)c(Cl)cc32)N1 (stereo not drawn) [14j] | 12 | 7 | 43 | 117 ± 5 | – | – | – | – |
| CCOC(=O)C1=C(C)Nc2nc3cc(Cl)c(Cl)cc3n2C1c1ccoc1 (stereo not drawn) [14k] | 34 | 6 | 33 | 54.7 ± 3.2 | – | – | – | – |
| CC1=C(C(=O)OC(C)C)C(c2ccoc2)n2c(nc3cc(Cl)c(Cl)cc32)N1 (stereo not drawn) [14l] | 31 | 8 | 4 | – | 36 | – | – | – |
| CCOC(=O)C1=C(C)Nc2nc3cc(Cl)c(Cl)cc3n2C1c1cccs1 (stereo not drawn) [14m] | 1 | 11 | 2 | – | 9 | – | – | – |
| CC1=C(C(=O)OC(C)C)C(c2cccs2)n2c(nc3cc(Cl)c(Cl)cc32)N1 (stereo not drawn) [14n] | 4 | 9 | 1 | – | 1 | – | – | – |
| CCOC(=O)C1=C(C)Nc2nc3cc(Cl)c(Cl)cc3n2C1c1ccsc1 (stereo not drawn) [14o] | 1 | 1 | 5 | – | 9 | – | – | – |
| CC1=C(C(=O)OC(C)C)C(c2ccsc2)n2c(nc3cc(Cl)c(Cl)cc32)N1 (stereo not drawn) [14p] | 1 | 6 | 2 | 359 ± 4 | – | – | – | – |
| CCOC(=O)C1=C(C)Nc2nc3cc(Br)c(Br)cc3n2C1c1ccco1 (stereo not drawn) [14q] | 17 | 2 | 1 | – | 37 | – | – | – |
| CC1=C(C(=O)OC(C)C)C(c2ccco2)n2c(nc3cc(Br)c(Br)cc32)N1 (stereo not drawn) [14r] | 28 | 21 | 11 | 62.6 ± 1.9 | – | – | – | – |
| CCOC(=O)C1=C(C)Nc2nc3cc(Br)c(Br)cc3n2C1c1ccoc1 (stereo not drawn) [14s] | 2 | 10 | 2 | – | 7 | – | – | – |
| CCOC(=O)C1=C(C)Nc2nc3cc(Br)ccc3n2[C@@H]1c1ccoc1 [(R)-16s] | – | 14 | 10 | 1.17 ± 0.1 | – | – | – | – |
| CC1=C(C(=O)OC(C)C)[C@@H](c2ccco2)n2c(nc3cc(F)ccc32)N1 [(S)-16b] | – | 12 | 26 | 0.94 ± 0.1 | – | sub-nanomolar | – | – |
| CC1=C(C(=O)OC(C)C)[C@@H](c2ccco2)n2c(nc3cc(Br)ccc32)N1 [(S)-16r] | – | 6 | 32 | 2.97 ± 0.4 | – | – | – | – |
| CC1=C(C(=O)OC(C)C)C(c2cocn2)n2c(nc3ccccc32)N1 (stereo not drawn) [X, reference compound] | – | – | – | – | – | – | -10.04 | – |
| Nc1nc(NCCc2ccc(O)cc2)nc2nc(-c3ccco3)nn12 [ZM241385, 4-(2-[7-amino-2-(2-furyl)[1,2,4]triazolo[2,3-a][1,3,5]triazin-5-ylamino]ethyl)phenol, reference compound] | – | – | – | – | – | – | – | 863 ± 4 |
